Measured values: PubChem BioAssay AID2060882 (Molecular Pharmacology Branch, DTP, NCI, 2025)

System: 898857-211-R-J1-PDC complex spheroids, growth % test/control
Assay: Anticancer human tumor 898857-211-R-J1-PDC patient-derived melanoma cell line growth inhibition [RAS]
Conditions: for IC50: curve of first compound; for viability, T/C: stronger effect = lower value
Procedure, shortened: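 Agents were tested in combination matrices in half-log decrements from a top concentration at or near clinical Cmax (10 microM if undetermined). Targets were multi-cell spheroids of tumour lines plus HUVEC and MSC stromal cells.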
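Note: spheroids exposed to compound for seven days before readout.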
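Throughout, for viability, T/C: 100% = DMSO vehicle control wells.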

Question: How did the IC50 (second compound 0.0316 µM) turn out when `CCc1c2c(nc3ccc(O)cc13)-c1cc3c(c(=O)n1C2)COC(=O)[C@]3(O)CC` + C#Cc1c(F)ccc2cc(O)cc(-c3ncc4c(N5CC6CCC(C5)N6)nc(OCC56CCCN5CC(F)C6)nc4c3F)c12 was run?
Answer: 4.7 nM

Question: And the IC50 (second compound 0.1 µM)?
Answer: 4.58 nM

Question: What about the IC50 (second compound 0.316 µM) of the same molecule?
Answer: 5.12 nM

Question: And the IC50 (second compound 1 µM)?
Answer: 4.9 nM

Question: What about the IC50 (second compound 3.16 µM) of the same molecule?
Answer: 5.35 nM

Question: And the IC50 (second compound 10 µM)?
Answer: 1.04 nM

Question: What about the viability, T/C (second compound 0.0316 µM, first compound 0.000949 µM) of the same molecule?
Answer: 109%

Question: And the viability, T/C (second compound 0.0316 µM, first compound 0.003 µM)?
Answer: 63.3%

Question: What about the viability, T/C (second compound 0.0316 µM, first compound 0.00949 µM) of the same molecule?
Answer: 30%

Question: What about the viability, T/C (second compound 0.0316 µM, first compound 0.03 µM) of the same molecule?
Answer: 11.4%

Question: And the viability, T/C (second compound 0.0316 µM, first compound 0.0949 µM)?
Answer: 9.62%

Question: And the viability, T/C (second compound 0.0316 µM, first compound 0.3 µM)?
Answer: 9.76%

Question: What about the viability, T/C (second compound 0.1 µM, first compound 0.000949 µM) of the same molecule?
Answer: 94.1%

Question: What about the viability, T/C (second compound 0.1 µM, first compound 0.003 µM) of the same molecule?
Answer: 61.4%

Question: And the viability, T/C (second compound 0.1 µM, first compound 0.00949 µM)?
Answer: 30.9%

Question: And the viability, T/C (second compound 0.1 µM, first compound 0.03 µM)?
Answer: 10.3%

Question: What about the viability, T/C (second compound 0.1 µM, first compound 0.0949 µM) of the same molecule?
Answer: 8.95%

Question: What about the viability, T/C (second compound 0.1 µM, first compound 0.3 µM) of the same molecule?
Answer: 8.77%

Question: And the viability, T/C (second compound 0.316 µM, first compound 0.000949 µM)?
Answer: 93%

Question: And the viability, T/C (second compound 0.316 µM, first compound 0.003 µM)?
Answer: 67.7%

Question: What about the viability, T/C (second compound 0.316 µM, first compound 0.00949 µM) of the same molecule?
Answer: 30.2%

Question: And the viability, T/C (second compound 0.316 µM, first compound 0.03 µM)?
Answer: 8.72%

Question: And the viability, T/C (second compound 0.316 µM, first compound 0.0949 µM)?
Answer: 7.89%

Question: And the viability, T/C (second compound 0.316 µM, first compound 0.3 µM)?
Answer: 9.18%

Question: And the viability, T/C (second compound 1 µM, first compound 0.000949 µM)?
Answer: 86.7%

Question: What about the viability, T/C (second compound 1 µM, first compound 0.003 µM) of the same molecule?
Answer: 62.4%

Question: What about the viability, T/C (second compound 1 µM, first compound 0.00949 µM) of the same molecule?
Answer: 33.9%

Question: What about the viability, T/C (second compound 1 µM, first compound 0.03 µM) of the same molecule?
Answer: 11.3%

Question: What about the viability, T/C (second compound 1 µM, first compound 0.0949 µM) of the same molecule?
Answer: 8.52%

Question: And the viability, T/C (second compound 1 µM, first compound 0.3 µM)?
Answer: 8.89%

Question: And the viability, T/C (second compound 3.16 µM, first compound 0.000949 µM)?
Answer: 87.2%

Question: And the viability, T/C (second compound 3.16 µM, first compound 0.003 µM)?
Answer: 71.3%

Question: What about the viability, T/C (second compound 3.16 µM, first compound 0.00949 µM) of the same molecule?
Answer: 29%

Question: What about the viability, T/C (second compound 3.16 µM, first compound 0.03 µM) of the same molecule?
Answer: 10.9%

Question: And the viability, T/C (second compound 3.16 µM, first compound 0.0949 µM)?
Answer: 9.14%

Question: What about the viability, T/C (second compound 3.16 µM, first compound 0.3 µM) of the same molecule?
Answer: 8.78%

Question: And the viability, T/C (second compound 10 µM, first compound 0.000949 µM)?
Answer: 51.6%

Question: And the viability, T/C (second compound 10 µM, first compound 0.003 µM)?
Answer: 29.9%

Question: What about the viability, T/C (second compound 10 µM, first compound 0.00949 µM) of the same molecule?
Answer: 15%

Question: What about the viability, T/C (second compound 10 µM, first compound 0.03 µM) of the same molecule?
Answer: 10.1%

Question: What about the viability, T/C (second compound 10 µM, first compound 0.0949 µM) of the same molecule?
Answer: 9.3%

Question: And the viability, T/C (second compound 10 µM, first compound 0.3 µM)?
Answer: 7.33%
